Results taken from PubChem BioAssay (NCI).
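Growth conditions: 96-well plates. Treatment: test compound, 48 hours, 5 concentrations. Analysis: linear interpolation between bracketing concentrations; unreached endpoints set to highest concentration. The concentration for full growth arrest is given as TGI.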

What was measured:
Experiment in all cases: growth of human tumour cells (NCI), 48 h
HOP-62 NSCLC = test system: HOP-62 NSCLC
OVCAR-3 ovarian = test system: OVCAR-3 ovarian
SF-539 CNS = test system: SF-539 CNS
M14 melanoma = test system: M14 melanoma
DMS 114 small cell lung = test system: DMS 114 small cell lung
HCT-15 colon = test system: HCT-15 colon
DLD-1 colon = test system: DLD-1 colon
SK-MEL-28 melanoma = test system: SK-MEL-28 melanoma
TK-10 renal = test system: TK-10 renal
MOLT-4 leukemia = test system: MOLT-4 leukemia
RXF 393 renal = test system: RXF 393 renal
CCRF-CEM leukemia = test system: CCRF-CEM leukemia
A498 renal = test system: A498 renal
SF-268 CNS = test system: SF-268 CNS
CAKI-1 renal = test system: CAKI-1 renal
SF-295 CNS = test system: SF-295 CNS
EKVX NSCLC = test system: EKVX NSCLC
SW-620 colon = test system: SW-620 colon
MALME-3M melanoma = test system: MALME-3M melanoma
DMS 273 small cell lung = test system: DMS 273 small cell lung
NCI-H522 lung = test system: NCI-H522 lung
XF 498 CNS = test system: XF 498 CNS
NCI-H460 lung = test system: NCI-H460 lung
SK-MEL-2 melanoma = test system: SK-MEL-2 melanoma
UACC-62 melanoma = test system: UACC-62 melanoma
NCI-H23 lung = test system: NCI-H23 lung
SNB-78 CNS = test system: SNB-78 CNS
IGROV1 ovarian = test system: IGROV1 ovarian
COLO 205 colon = test system: COLO 205 colon
NCI-H226 lung = test system: NCI-H226 lung
SR leukemia = test system: SR leukemia
OVCAR-8 ovarian = test system: OVCAR-8 ovarian
HT29 colon = test system: HT29 colon
HCC-2998 colon = test system: HCC-2998 colon
M19-MEL melanoma = test system: M19-MEL melanoma
HL-60(TB) leukemia = test system: HL-60(TB) leukemia
HCT-116 colon = test system: HCT-116 colon
OVCAR-4 ovarian = test system: OVCAR-4 ovarian
SN12C renal = test system: SN12C renal
HOP-18 NSCLC = test system: HOP-18 NSCLC
ACHN renal = test system: ACHN renal
UACC-257 melanoma = test system: UACC-257 melanoma
U251 CNS = test system: U251 CNS
HOP-92 NSCLC = test system: HOP-92 NSCLC
SK-OV-3 ovarian = test system: SK-OV-3 ovarian
SNB-75 CNS = test system: SNB-75 CNS
SK-MEL-5 melanoma = test system: SK-MEL-5 melanoma
SNB-19 CNS = test system: SNB-19 CNS
A549 NSCLC = test system: A549 NSCLC
786-0 renal = test system: 786-0 renal
KM20L2 colon = test system: KM20L2 colon
LXFL 529 NSCLC = test system: LXFL 529 NSCLC
KM12 colon = test system: KM12 colon
UO-31 renal = test system: UO-31 renal
RPMI-8226 leukemia = test system: RPMI-8226 leukemia
LOX IMVI melanoma = test system: LOX IMVI melanoma
K-562 leukemia = test system: K-562 leukemia
OVCAR-5 ovarian = test system: OVCAR-5 ovarian
RXF-631 renal = test system: RXF-631 renal

Cc1ccc(C)c(N2C(=O)C(=O)C(c3nc4ccccc4o3)/C(=N/N)C2=O)c1 (configuration not stated)
TGI (HOP-62 NSCLC): > 100 µM | TGI (OVCAR-3 ovarian): > 100 µM | TGI (SF-539 CNS): > 100 µM | TGI (M14 melanoma): > 100 µM | TGI (DMS 114 small cell lung): > 100 µM | TGI (HCT-15 colon): > 100 µM | TGI (DLD-1 colon): > 100 µM | TGI (SK-MEL-28 melanoma): > 100 µM | TGI (TK-10 renal): > 100 µM | TGI (MOLT-4 leukemia): > 100 µM | TGI (RXF 393 renal): > 100 µM | TGI (CCRF-CEM leukemia): > 100 µM | TGI (A498 renal): > 100 µM | TGI (SF-268 CNS): > 100 µM | TGI (CAKI-1 renal): > 100 µM | TGI (SF-295 CNS): > 100 µM | TGI (EKVX NSCLC): > 100 µM | TGI (SW-620 colon): > 100 µM | TGI (MALME-3M melanoma): > 100 µM | TGI (DMS 273 small cell lung): > 100 µM | TGI (NCI-H522 lung): > 100 µM | TGI (XF 498 CNS): > 100 µM | TGI (NCI-H460 lung): > 100 µM | TGI (SK-MEL-2 melanoma): > 100 µM | TGI (UACC-62 melanoma): > 100 µM | TGI (NCI-H23 lung): > 100 µM | TGI (SNB-78 CNS): > 100 µM | TGI (IGROV1 ovarian): > 100 µM | TGI (COLO 205 colon): > 100 µM | TGI (NCI-H226 lung): > 100 µM | TGI (SR leukemia): > 100 µM | TGI (OVCAR-8 ovarian): > 100 µM | TGI (HT29 colon): > 100 µM | TGI (HCC-2998 colon): > 100 µM | TGI (M19-MEL melanoma): > 100 µM | TGI (HL-60(TB) leukemia): > 100 µM | TGI (HCT-116 colon): > 100 µM | TGI (OVCAR-4 ovarian): > 100 µM | TGI (SN12C renal): > 100 µM | TGI (HOP-18 NSCLC): > 100 µM | TGI (ACHN renal): > 100 µM | TGI (UACC-257 melanoma): > 100 µM | TGI (U251 CNS): > 100 µM | TGI (HOP-92 NSCLC): > 100 µM | TGI (SK-OV-3 ovarian): > 100 µM | TGI (SNB-75 CNS): > 100 µM | TGI (SK-MEL-5 melanoma): > 100 µM | TGI (SNB-19 CNS): > 100 µM | TGI (A549 NSCLC): > 100 µM | TGI (786-0 renal): > 100 µM | TGI (KM20L2 colon): > 100 µM | TGI (LXFL 529 NSCLC): > 100 µM | TGI (KM12 colon): > 100 µM | TGI (UO-31 renal): > 100 µM

COc1cc(/C=N\O[Si](C)(C)C(C)(C)C)ccc1O[Si](C)(C)C(C)(C)C
TGI (HOP-62 NSCLC): > 100 µM | TGI (RPMI-8226 leukemia): > 100 µM | TGI (OVCAR-3 ovarian): 54.1 µM | TGI (SF-539 CNS): > 100 µM | TGI (M14 melanoma): > 100 µM | TGI (DMS 114 small cell lung): 83.4 µM | TGI (HCT-15 colon): 82.3 µM | TGI (DLD-1 colon): > 100 µM | TGI (TK-10 renal): > 100 µM | TGI (MOLT-4 leukemia): > 100 µM | TGI (RXF 393 renal): > 100 µM | TGI (CCRF-CEM leukemia): > 100 µM | TGI (SF-268 CNS): > 100 µM | TGI (CAKI-1 renal): > 100 µM | TGI (SF-295 CNS): > 100 µM | TGI (EKVX NSCLC): > 100 µM | TGI (SW-620 colon): > 100 µM | TGI (MALME-3M melanoma): > 100 µM | TGI (DMS 273 small cell lung): > 100 µM | TGI (XF 498 CNS): > 100 µM | TGI (NCI-H460 lung): > 100 µM | TGI (LOX IMVI melanoma): 62 µM | TGI (SK-MEL-2 melanoma): > 100 µM | TGI (UACC-62 melanoma): > 100 µM | TGI (K-562 leukemia): > 100 µM | TGI (SNB-78 CNS): > 100 µM | TGI (IGROV1 ovarian): > 100 µM | TGI (OVCAR-5 ovarian): 68.7 µM | TGI (COLO 205 colon): > 100 µM | TGI (OVCAR-8 ovarian): > 100 µM | TGI (HT29 colon): > 100 µM | TGI (HCC-2998 colon): 56.8 µM | TGI (M19-MEL melanoma): > 100 µM | TGI (HL-60(TB) leukemia): > 100 µM | TGI (HCT-116 colon): > 100 µM | TGI (OVCAR-4 ovarian): > 100 µM | TGI (SN12C renal): > 100 µM | TGI (HOP-18 NSCLC): > 100 µM | TGI (ACHN renal): > 100 µM | TGI (UACC-257 melanoma): > 100 µM | TGI (U251 CNS): 71.5 µM | TGI (HOP-92 NSCLC): 60.1 µM | TGI (SK-OV-3 ovarian): > 100 µM | TGI (SNB-75 CNS): > 100 µM | TGI (SK-MEL-5 melanoma): > 100 µM | TGI (RXF-631 renal): 71.6 µM | TGI (SNB-19 CNS): > 100 µM | TGI (A549 NSCLC): > 100 µM | TGI (786-0 renal): > 100 µM | TGI (KM20L2 colon): > 100 µM | TGI (LXFL 529 NSCLC): > 100 µM | TGI (KM12 colon): > 100 µM | TGI (UO-31 renal): > 100 µM
